Laboratory results reported in US11427549B2, “Pyrimidinyloxy benzo-fused compounds as herbicides” (FMC Corporation, priority 2017, dated 2022).

How the values were obtained:
[1] = tested on: barnyardgrass (Echinochloa crus-galli); assay: Test A preemergence, barnyardgrass; type: in vivo; settings: Echinochloa crus-galli, pre-emergence, 240 h, 0 to 100 scale (0 no effect, 100 complete control), read-out: Plant response rating, Barnyardgrass; for pest or weed control at 31 g/ha: 31 g ai/ha; for pest or weed control at 125 g/ha: 125 g ai/ha
[2] = tested on: kochia (Kochia scoparia); assay: Test A preemergence, kochia; type: in vivo; settings: Bassia scoparia, pre-emergence, 240 h, 0 to 100 scale (0 no effect, 100 complete control), read-out: Plant response rating, Kochia; for pest or weed control at 31 g/ha: 31 g ai/ha; for pest or weed control at 125 g/ha: 125 g ai/ha
[3] = tested on: ragweed (common ragweed, Ambrosia elatior); assay: Test A preemergence, ragweed; type: in vivo; settings: Ambrosia artemisiifolia, pre-emergence, 240 h, 0 to 100 scale (0 no effect, 100 complete control), read-out: Plant response rating, Ragweed; for pest or weed control at 31 g/ha: 31 g ai/ha; for pest or weed control at 125 g/ha: 125 g ai/ha
[4] = tested on: ryegrass, Italian (Italian ryegrass, Lolium multiflorum); assay: Test A preemergence, ryegrass, Italian; type: in vivo; settings: Lolium multiflorum, pre-emergence, 240 h, 0 to 100 scale (0 no effect, 100 complete control), read-out: Plant response rating, Ryegrass, Italian; for pest or weed control at 31 g/ha: 31 g ai/ha; for pest or weed control at 125 g/ha: 125 g ai/ha
[5] = tested on: foxtail, giant (giant foxtail, Setaria faberii); assay: Test A preemergence, foxtail, giant; type: in vivo; settings: Setaria faberi, pre-emergence, 240 h, 0 to 100 scale (0 no effect, 100 complete control), read-out: Plant response rating, Foxtail, Giant; for pest or weed control at 31 g/ha: 31 g ai/ha; for pest or weed control at 125 g/ha: 125 g ai/ha
[6] = tested on: pigweed (Amaranthus retroflexus); assay: Test A preemergence, pigweed; type: in vivo; settings: Amaranthus retroflexus, pre-emergence, 240 h, 0 to 100 scale (0 no effect, 100 complete control), read-out: Plant response rating, Pigweed; for pest or weed control at 31 g/ha: 31 g ai/ha; for pest or weed control at 125 g/ha: 125 g ai/ha
[7] = tested on: barnyardgrass (Echinochloa crus-galli); assay: Test A postemergence, barnyardgrass; type: in vivo; settings: Echinochloa crus-galli, post-emergence, 240 h, 0 to 100 scale (0 no effect, 100 complete control), read-out: Plant response rating, Barnyardgrass; for pest or weed control at 31 g/ha: 31 g ai/ha; for pest or weed control at 125 g/ha: 125 g ai/ha
[8] = tested on: kochia (Kochia scoparia); assay: Test A postemergence, kochia; type: in vivo; settings: Bassia scoparia, post-emergence, 240 h, 0 to 100 scale (0 no effect, 100 complete control), read-out: Plant response rating, Kochia; for pest or weed control at 31 g/ha: 31 g ai/ha; for pest or weed control at 125 g/ha: 125 g ai/ha
[9] = tested on: ragweed (common ragweed, Ambrosia elatior); assay: Test A postemergence, ragweed; type: in vivo; settings: Ambrosia artemisiifolia, post-emergence, 240 h, 0 to 100 scale (0 no effect, 100 complete control), read-out: Plant response rating, Ragweed; for pest or weed control at 31 g/ha: 31 g ai/ha; for pest or weed control at 125 g/ha: 125 g ai/ha
[10] = tested on: ryegrass, Italian (Italian ryegrass, Lolium multiflorum); assay: Test A postemergence, ryegrass, Italian; type: in vivo; settings: Lolium multiflorum, post-emergence, 240 h, 0 to 100 scale (0 no effect, 100 complete control), read-out: Plant response rating, Ryegrass, Italian; for pest or weed control at 31 g/ha: 31 g ai/ha; for pest or weed control at 125 g/ha: 125 g ai/ha
[11] = tested on: pigweed (Amaranthus retroflexus); assay: Test A postemergence, pigweed; type: in vivo; settings: Amaranthus retroflexus, post-emergence, 240 h, 0 to 100 scale (0 no effect, 100 complete control), read-out: Plant response rating, Pigweed; for pest or weed control at 31 g/ha: 31 g ai/ha; for pest or weed control at 125 g/ha: 125 g ai/ha
[12] = tested on: wheat (Triticum aestivum); assay: Test A postemergence, wheat; type: in vivo; settings: Triticum aestivum, post-emergence, 240 h, 0 to 100 scale (0 no effect, 100 complete control), read-out: Plant response rating, Wheat; for plant injury at 31 g/ha: 31 g ai/ha; for plant injury at 125 g/ha: 125 g ai/ha
[13] = tested on: corn (Zea mays); assay: Test A postemergence, corn; type: in vivo; settings: Zea mays, post-emergence, 240 h, 0 to 100 scale (0 no effect, 100 complete control); for Corn plant response rating (crop injury, 0 = no effect, 100 = complete kill) at 31 g/ha: 31 g ai/ha; for Corn plant response rating (crop injury, 0 = no effect, 100 = complete kill) at 125 g/ha: 125 g ai/ha
[14] = tested on: blackgrass (Alopecurus myosuroides); assay: Test A postemergence, blackgrass; type: in vivo; settings: Alopecurus myosuroides, post-emergence, 240 h, 0 to 100 scale (0 no effect, 100 complete control), read-out: Plant response rating, Blackgrass; for pest or weed control at 31 g/ha: 31 g ai/ha; for pest or weed control at 125 g/ha: 125 g ai/ha
[15] = tested on: galium (catchweed bedstraw, Galium aparine); assay: Test A postemergence, galium; type: in vivo; settings: Galium, post-emergence, 240 h, 0 to 100 scale (0 no effect, 100 complete control), read-out: Plant response rating, Galium; for pest or weed control at 31 g/ha: 31 g ai/ha; for pest or weed control at 125 g/ha: 125 g ai/ha
[16] = tested on: rice (Oryza sativa); assay: Test B flooded paddy test, rice; settings: Oryza sativa, read-out: Plant response rating, Rice (0 to 100 scale, 0 is no effect, 100 is complete control)
[17] = tested on: ducksalad (Heteranthera limosa); assay: Test B flooded paddy test, ducksalad; settings: Heteranthera limosa, read-out: Plant response rating, Ducksalad (0 to 100 scale, 0 is no effect, 100 is complete control)
[18] = tested on: barnyardgrass (Echinochloa crus-galli); assay: Test B flooded paddy test, barnyardgrass; settings: Echinochloa crus-galli, read-out: Plant response rating, Barnyardgrass (0 to 100 scale, 0 is no effect, 100 is complete control)

| SMILES | pest or weed control at 31 g/ha [1] | pest or weed control at 125 g/ha [1] | pest or weed control at 31 g/ha [2] | pest or weed control at 125 g/ha [2] | pest or weed control at 31 g/ha [3] | pest or weed control at 125 g/ha [3] | pest or weed control at 31 g/ha [4] | pest or weed control at 125 g/ha [4] | pest or weed control at 31 g/ha [5] | pest or weed control at 125 g/ha [5] | pest or weed control at 31 g/ha [6] | pest or weed control at 125 g/ha [6] | pest or weed control at 31 g/ha [7] | pest or weed control at 125 g/ha [7] | pest or weed control at 31 g/ha [8] | pest or weed control at 125 g/ha [8] | pest or weed control at 31 g/ha [9] | pest or weed control at 125 g/ha [9] | pest or weed control at 31 g/ha [10] | pest or weed control at 125 g/ha [10] | further results |
| --- | --- | --- | --- | --- | --- | --- | --- | --- | --- | --- | --- | --- | --- | --- | --- | --- | --- | --- | --- | --- | --- |
| O=C1Cc2cccc(Oc3ncc(Cl)cn3)c2C(CCCC(F)(F)F)O1 (stereo not drawn) [Compound 17, 8-[(5-Chloro-2-pyrimidinyl)oxy]-1,4-dihydro-1-(4,4,4-trifluorobutyl)-3H-2-benzopyran-3-one] | 10% | 50% | 0% | 60% | 0% | 0% | 0% | 10% | 10% | 70% | 60% | 100% | 10% | 70% | 30% | 70% | 10% | 10% | 0% | 10% | pest or weed control at 31 g/ha [11]: 50%; pest or weed control at 125 g/ha [11]: 70%; plant injury at 31 g/ha [12]: 0%; plant injury at 125 g/ha [12]: 10%; Corn plant response rating (crop injury, 0 = no effect, 100 = complete kill) at 31 g/ha [13]: 20%; Corn plant response rating (crop injury, 0 = no effect, 100 = complete kill) at 125 g/ha [13]: 20%; pest or weed control at 31 g/ha [14]: 20%; pest or weed control at 125 g/ha [14]: 50%; pest or weed control at 31 g/ha [15]: 40%; pest or weed control at 125 g/ha [15]: 90%; plant injury at 250 g/ha [16]: 0%; pest or weed control at 250 g/ha [17]: 0%; pest or weed control at 250 g/ha [18]: 0% |
| O=C1O[C@@H](CCC(F)(F)F)c2c(Oc3ncc(Cl)cn3)cccc21 [Compound 18, (3S)-4-[(5-Chloro-2-pyrimidinyl)oxy]-3-(3,3,3-trifluoropropyl)-1(3H)-isobenzofuranone] | 0% | 0% | 0% | 0% | 0% | 0% | 0% | 0% | 0% | 0% | 0% | 0% | 0% | 0% | 0% | 10% | 0% | 0% | 0% | 0% | pest or weed control at 31 g/ha [11]: 10%; pest or weed control at 125 g/ha [11]: 20%; plant injury at 31 g/ha [12]: 0%; plant injury at 125 g/ha [12]: 0%; Corn plant response rating (crop injury, 0 = no effect, 100 = complete kill) at 31 g/ha [13]: 0%; Corn plant response rating (crop injury, 0 = no effect, 100 = complete kill) at 125 g/ha [13]: 10%; pest or weed control at 31 g/ha [14]: 0%; pest or weed control at 125 g/ha [14]: 0%; pest or weed control at 31 g/ha [15]: 0%; pest or weed control at 125 g/ha [15]: 10%; plant injury at 250 g/ha [16]: 0%; pest or weed control at 250 g/ha [17]: 0%; pest or weed control at 250 g/ha [18]: 0% |
| O=C1O[C@H](CCC(F)(F)F)c2c(Oc3ncc(Cl)cn3)cccc21 [Compound 19, (3R)-4-[(5-Chloro-2-pyrimidinyl)oxy]-3-(3,3,3-trifluoropropyl)-1(3H)-isobenzofuranone] | 80% | 100% | 90% | 100% | 0% | 60% | 10% | 90% | 100% | 100% | 100% | 100% | 50% | 100% | 80% | 100% | 30% | 70% | 80% | 100% | pest or weed control at 31 g/ha [11]: 100%; pest or weed control at 125 g/ha [11]: 100%; plant injury at 31 g/ha [12]: 20%; plant injury at 125 g/ha [12]: 100%; Corn plant response rating (crop injury, 0 = no effect, 100 = complete kill) at 31 g/ha [13]: 40%; Corn plant response rating (crop injury, 0 = no effect, 100 = complete kill) at 125 g/ha [13]: 70%; pest or weed control at 31 g/ha [14]: 100%; pest or weed control at 125 g/ha [14]: 100%; pest or weed control at 31 g/ha [15]: 90%; pest or weed control at 125 g/ha [15]: 100%; plant injury at 250 g/ha [16]: 50%; pest or weed control at 250 g/ha [17]: 100%; pest or weed control at 250 g/ha [18]: 60% |
